Source: PMC6934184, “Selective DNA-PKcs inhibition extends the therapeutic index of localized radiotherapy and chemotherapy” (The Journal of Clinical Investigation, 2019)

Target: T1, CSNK2A1 (CK2 alpha 1) (Homo sapiens, UniProt P68400)
T1 construct: purchased Thermo Fisher Scientific (Life Technologies) SelectScreen
Experiment: SelectScreen Z'LYTE
Type: biochemical
How it was run: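 NU5455 was profiled across the SelectScreen Broad panel of kinase activity and binding assays. Z'LYTE reactions such as CSF1R ran at apparent Km ATP, while the Adapta CAMK1 assay used ATP listed as 10. Values are given as percent.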

T1 sequence (P68400 whole entry): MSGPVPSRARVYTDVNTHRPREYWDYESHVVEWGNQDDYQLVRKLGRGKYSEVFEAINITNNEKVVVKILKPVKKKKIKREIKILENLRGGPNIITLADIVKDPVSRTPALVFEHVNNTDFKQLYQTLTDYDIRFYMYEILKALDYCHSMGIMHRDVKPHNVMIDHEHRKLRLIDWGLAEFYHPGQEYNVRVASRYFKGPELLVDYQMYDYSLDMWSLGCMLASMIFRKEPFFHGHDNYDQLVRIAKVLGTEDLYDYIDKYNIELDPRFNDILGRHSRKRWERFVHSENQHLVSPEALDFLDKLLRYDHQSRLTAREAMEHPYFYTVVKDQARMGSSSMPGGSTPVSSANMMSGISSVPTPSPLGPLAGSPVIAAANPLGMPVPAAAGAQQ

Work on `CN(C(=O)CN1CCOCC1)c1ccc2sc3c(-c4cccc5c(=O)cc(N6CC7CCC(C6)O7)oc45)cccc3c2c1` [NU5455] yielded an inhibition at 1 µM of 7.1%.
